Assay results reported in the supplement of paper PMC10307832.

What was measured:
Assay in all cases: relative viability (nuclei count vs DMSO), 5 days (fraction); higher = more cells survive
[1] = compound: COc1ccc(-c2ccc3c(N4CCOC[C@@H]4C)nc(N4CCOC[C@@H]4C)nc3n2)cc1CO [AZD8055] + C[C@]1(O)C[C@@H](c2nc(-c3ccc4ccc(-c5ccccc5)nc4c3)c3c(N)nccn32)C1 [Linsitinib] (partner 1 µM)
Outline: (§1)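 Lung cancer cell lines were pin-tool dosed in 1536-well plates on the day after seeding, with either a lone drug or a fixed anchor-drug dose plus five library-drug doses (not always all listed) in √10 steps. Nuclei were counted on 4× images after 5 days. Relative viability is the ratio of treated-well to vehicle-well nuclei counts, with each value a median of duplicate plates.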

[2] = compound: COc1ccc(-c2ccc3c(N4CCOC[C@@H]4C)nc(N4CCOC[C@@H]4C)nc3n2)cc1CO [AZD8055] + CS(=O)(=O)N1CCN(Cc2cc3nc(-c4cccc5[nH]ncc45)nc(N4CCOCC4)c3s2)CC1 [Pictilisib] (partner 1 µM)
Outline: as §1

[3] = compound: COc1ccc(-c2ccc3c(N4CCOC[C@@H]4C)nc(N4CCOC[C@@H]4C)nc3n2)cc1CO [AZD8055] + Cc1nc(NC(=O)N2CCC[C@H]2C(N)=O)sc1-c1ccnc(C(C)(C)C(F)(F)F)c1 [Alpelisib] (partner 2 µM)
Outline: as §1

[4] = compound: COc1ccc(-c2ccc3c(N4CCOC[C@@H]4C)nc(N4CCOC[C@@H]4C)nc3n2)cc1CO [AZD8055] + Nc1ncn([C@H]2C[C@H](O)[C@@H](CO)O2)c(=O)n1 [Decitabine] (partner 2 µM)
Outline: as §1

| Cell Line | relative viability ([1]; first compound 0.01 µM) | relative viability ([1]; first compound 0.03162 µM) | relative viability ([1]; first compound 0.1 µM) | relative viability ([1]; first compound 0.3162 µM) | relative viability ([1]; first compound 1 µM) | relative viability ([2]; first compound 0.01 µM) | relative viability ([2]; first compound 0.03162 µM) | relative viability ([2]; first compound 0.1 µM) | relative viability ([2]; first compound 0.3162 µM) | relative viability ([2]; first compound 1 µM) | relative viability ([3]; first compound 0.01 µM) | relative viability ([3]; first compound 0.03162 µM) | relative viability ([3]; first compound 0.1 µM) | relative viability ([3]; first compound 0.3162 µM) | relative viability ([3]; first compound 1 µM) | relative viability ([4]; first compound 0.01 µM) | relative viability ([4]; first compound 0.03162 µM) | relative viability ([4]; first compound 0.1 µM) | relative viability ([4]; first compound 0.3162 µM) | relative viability ([4]; first compound 1 µM) |
| --- | --- | --- | --- | --- | --- | --- | --- | --- | --- | --- | --- | --- | --- | --- | --- | --- | --- | --- | --- | --- |
| NCI-H2228 | 0.528 | 0.284 | 0.304 | 0.175 | 0.257 | 0.244 | 0.273 | 0.159 | 0.263 | 0.287 | 0.621 | 0.297 | 0.222 | 0.19 | 0.272 | – | – | – | – | – |
| ABC-1 | 0.845 | 0.484 | 0.551 | 0.425 | 0.323 | 0.78 | 0.659 | 0.556 | 0.438 | 0.334 | 0.897 | 0.847 | 0.65 | 0.404 | 0.515 | 1.16 | 1.51 | 0.825 | 0.697 | 0.576 |
| COR-L23 | 0.977 | 0.578 | 0.392 | 0.152 | 0.14 | 0.95 | 0.478 | 0.35 | 0.16 | 0.17 | 0.837 | 0.551 | 0.395 | 0.155 | 0.154 | 0.401 | 0.298 | 0.305 | 0.209 | 0.191 |
| ChaGo-K-1 | – | – | – | – | – | 0.817 | 0.848 | 0.801 | 0.49 | 0.346 | – | – | – | – | – | 0.506 | 0.425 | 0.528 | 0.494 | 0.441 |
| NCI-H1650 | – | – | – | – | – | 0.551 | 0.575 | 0.479 | 0.393 | 0.36 | – | – | – | – | – | 0.535 | 0.432 | 0.439 | 0.384 | 0.358 |
| EBC-1 | 1.06 | 0.724 | 0.437 | 0.235 | 0.16 | 0.303 | 0.266 | 0.206 | 0.197 | 0.19 | 0.827 | 0.421 | 0.373 | 0.265 | 0.259 | – | – | – | – | – |
| NCI-H1703 | 0.514 | 0.576 | 0.623 | 0.102 | 0.29 | 0.24 | 0.263 | 0.257 | 0.232 | 0.255 | 0.328 | 0.297 | 0.237 | 0.219 | 0.318 | – | – | – | – | – |
| CAL-12T | 0.84 | 0.658 | 0.465 | 0.211 | 0.258 | 0.393 | 0.341 | 0.349 | 0.322 | 0.213 | 1.15 | 1.1 | 0.91 | 0.337 | 0.17 | – | – | – | – | – |
| NCI-H1563 | 0.971 | 0.802 | 0.699 | 0.625 | 0.743 | 0.651 | 0.614 | 0.65 | 0.61 | 0.638 | 0.82 | 0.61 | 0.603 | 0.51 | 0.673 | – | – | – | – | – |
| NCI-H2170 | – | – | – | – | – | 0.273 | 0.255 | 0.213 | 0.222 | 0.23 | 0.691 | 0.623 | 0.386 | 0.288 | 0.252 | 0.537 | 0.363 | 0.456 | 0.252 | 0.218 |
